One assay deals with Bacillus subtilis. The assay is described as follows: Antibacterial activity against Bacillus subtilis at 40 ug. It counts as functional. To be noted: read-out: IZ.
The test system of another assay is P388. Nature of the assay: Cytotoxicity against mouse P388 cells. Format: functional, cell-based.

pIC50: −log10 of the molar value.

As for `COC(=O)/C(=C1/OC(=O)C(c2ccc(OC)cc2)=C1O)c1ccc(OC)c(Cl)c1`, the zone of inhibition at 40 µg/disc in the assay on Bacillus subtilis came out at 7 mm.

As for `COC(=O)/C(=C1/OC(O)=C(c2ccc(OC)cc2)C1=O)c1ccc(OC)cc1`, the zone of inhibition at 40 µg/disc in the assay with Bacillus subtilis came to 8 mm.

As for `COC(=O)/C(=C1/OC(=O)C(c2ccc(OC)cc2)=C1O)c1cc(Cl)c(OC)c(Cl)c1`, the zone of inhibition at 40 µg/disc with Bacillus subtilis turned out to be 4 mm. The molecule also gave a pIC50 with P388 of 4.69.

As a reminder, the pIC50 is −log10 of the IC50, conventionally taken in molar units. The low end stands for a high IC50, the high end for a low IC50.

(Values after ChEMBL document CHEMBL1151288, “Dichlorinated pulvinic acid derivative from a Malaysian Scleroderma sp” (J Nat Prod, 2005).)
